# Results reported in patent US20070129288A1, “Antibacterial amide macrocycles” (BAYER HEALTHCARE AG, priority 2002, published 2007).
# Where a name gives a salt, the structure may show the parent alone. Read-outs that look alike come from different tables or passages of the source.
# Tests used:
# [1] = target: translation of firefly luciferase, S. aureus RN4220 S30 extract; test: In vitro transcription-translation with S. aureus extracts; type: biochemical; settings: reporter plasmid pla, 30° C., 60 min, luciferase luminescence
# Text: (§1) In vitro Transcription-translation with S. aureus Extracts
# (§2) Construction of an S. aureus Luciferase Reporter Plasmid
# (§3) A reporter plasmid which can be used in an in vitro transcription-translation assay for S. aureus is constructed by using the plasmid pBESTluc (Promega Corporation, USA). The E. coli tac promoter present in this plasmid in front of the firefly luciferase is replaced by the capAl promoter with appropriate Shine-Dalgarno sequence from S. aureus. The primers CAPFor 5′-[…] […]-3′ and CAPRev 5′-[…]-3′ are used for this. The primer CAPFor contains the capAl promoter, the ribosome binding site and the 5′ region of the luciferase gene. After PCR using pBESTluc as template it is possible to isolate a PCR product which contains the firefly luciferase gene with the fused capAl promoter. This is, after restriction with Clal and HindIII, ligated into the vector pBESTluc which has likewise been digested with ClaI and HindIII. The resulting plasmid pla is able to replicate in E. coli and be used as template in the S. aureus in vitro transcription-translation assay.
# (§4) Preparation of S30 Extracts from S. aureus
# (§5) Six liters of BHI medium are inoculated with a 250 ml overnight culture of an S. aureus strain and allowed to grow at 37° C. until the OD600 nm is 2-4. The cells are harvested by centrifugation and washed in 500 ml of cold buffer A (10 mM Tris acetate, pH 8.0, 14 mM Mg acetate, 1 mM DTT, 1 M KCl). After renewed centrifugation, the cells are washed in 250 ml of cold buffer A with 50 mM KCl, and the resulting pellets are frozen at −20° C. for 60 min. The pellets are thawed on ice in 30 to 60 min and taken up to a total volume of 99 ml in buffer B (10 mM Tris acetate, pH 8.0, 20 mM Mg acetate, 1 mM DTT, 50 mM KCl). 1.5 ml portions of lysostaphin (0.8 mg/ml) in buffer B are introduced into 3 precooled centrifuge cups and each mixed with 33 ml of the cell suspension. The samples are incubated at 37° C., shaking occasionally, for 45 to 60 min, before 150 μl of a 0.5 M DTT solution are added. The lyzed cells are centrifuged at 30 000×g and 4° C. for 30 min. The cell pellet is taken up in buffer B and then centrifuged again under the same conditions, and the collected supernatants are combined. The supernatants are centrifuged again under the same conditions, and 0.25 volume of buffer C (670 mM Tris acetate, pH 8.0, 20 mM Mg acetate, 7 mM Na3 phosphenolpyruvate, 7 mM DTT, 5.5 mM ATP, 70 μM amino acids (complete from Promega), 75 μg of pyruvate kinase (Sigma, Germany)/ml are added to the upper 2/3 of the supernatant. The samples are incubated at 37° C. for 30 min. The supernatants are dialyzed against 2 l of dialysis buffer (10 mM Tris acetate, pH 8.0, 14 mM Mg acetate, 1 mM DTT, 60 mM K acetate) in a dialysis tube with a 3500 Da cut-off with one buffer change at 4° C. overnight. The dialysate is concentrated to a protein concentration of about 10 mg/ml by covering the dialysis tube with cold PEG 8000 powder (Sigma, Germany) at 4° C. The S30 extracts can be stored in aliquots at −70° C.
# (§6) Determination of the IC50 in the S. aureus in vitro Transcription-translation Assay
# (§7) Inhibition of protein biosynthesis of the compounds can be shown in an in vitro transcription-translation assay. The assay is based on the cell-free transcription and translation of firefly luciferase using the reporter plasmid pla as template and cell-free S30 extracts obtained from S. aureus. The activity of the resulting luciferase can be detected by luminescence measurement. […]
# [2] = target: translation of firefly luciferase, S. aureus 133 S30 extract; test: as above; type: biochemical; settings: reporter plasmid pla, 30° C., 60 min, luciferase luminescence
# Text: as §1, §2, §3, §4, §5, §6, §7
# [3] = system: translation of firefly luciferase, Escherichia coli MRE 600 S30 extract; test: In vitro transcription-translation with E. coli extracts; type: biochemical; settings: plasmid pBESTLuc, 30° C., 60 min, luciferase luminescence, read-out: IC50 E. coli MRE600 Translation
# Protocol: In vitro Transcription-translation with E. coli Extracts
# An S30 extract is prepared by harvesting logarithmically growing Escherichia coli MRE 600 (M. Müller; University Freiburg), washing and employing them as described for the in vitro transcription-translation assay (Müller, M. and Blobel, G. Proc Natl Acad Sci USA (1984) 81, pp. 7421-7425).
# 1 μl of cAMP (11.25 mg/ml) are additionally added per 50 μl of reaction mix to the reaction mix for the in vitro transcription-translation assay. The assay mixture amounts to 105 μl, with 5 μl of the substance to be tested being introduced in 5% strength DMSO. 1 μg/100 μl of mixture of the plasmid pBESTLuc (Promega, Germany) are used as transcription template. After incubation at 30° C. for 60 min, 50 μl of luciferin solution (20 mM tricine, 2.67 mM MgSO4, 0.1 mM EDTA, 33.3 mM DTT pH 7.8, 270 μM CoA, 470 μM luciferin, 530 μM ATP) are added, and the resulting bioluminescence is measured in a luminometer for 1 minute. The IC50 is indicated by the concentration of an inhibitor which leads to 50% inhibition of the translation of firefly luciferase.
# S. aureus 133 [4] = test: Systemic infection with S. aureus 133 (mouse sepsis model); type: in vivo; settings: female CFW1 mice, i.p. infection, i.v. therapy 30 minutes after infection, survival recorded for 6 days
# Protocol: Systemic Infection with S. aureus 133
# The suitability of the compounds of the invention for treating bacterial infections can be shown in various animal models. For this purpose, the animals are generally infected with a suitable virulent microbe and then treated with the compound to be tested, which is in a formulation which is adopted to the particular therapy model.
# For this purpose, S. aureus 133 cells are cultured overnight in BH broth (Oxoid, Germany). The overnight culture is diluted 1:100 in fresh BH broth and expanded for 3 hours. The bacteria which are in the logarithmic phase of growth are centrifuged and washed 2× with buffered physiological saline solution. A cell suspension in saline solution with an extinction of 50 units is then adjusted in a photometer (Dr. Lange LP 2W). After a dilution step (1:15), this suspension is mixed 1:1 with a 10% strength mucine suspension. 0.2 ml of this infection solution is administered i.p. per 20 g of mouse. This corresponds to a cell count of about 1-2×10E6 microbes/mouse. The i.v. therapy takes place 30 minutes after the infection. Female CFW1 mice are used for the infection test. The survival of the animals is recorded for 6 days. The animal model is adjusted so that untreated animals die within 24 h after the infection.
# [5] = system: Enterococcus faecalis ICB 27159; test: Minimum inhibitory concentration (MIC), liquid dilution test; type: cell-based; settings: ICB27159, test medium with 10% FCS, 5% CO2, 37° C., 18-24 h, read-out: MIC E. faecalis ICB27159
# Protocol: (§8) Determination of the Minimum Inhibitory Concentration (MIC):
# (§9) The minimum inhibitory concentration (MIC) is the minimum concentration of an antibiotic with which the growth of a test microbe is inhibited over 18-24 h. The inhibitor concentration can in these cases be determined by standard microbiological methods (see, for example, The National Committee for Clinical Laboratory Standards. Methods for dilution antimicrobial susceptibility tests for bacteria that grow aerobically; approved standard-fifth edition. NCCLS document M7-A5 [ISBN 1-56238-394-9]. NCCLS, 940 West Valley Road, Suite 1400, Wayne, Pa. 19087-1898 USA, 2000). The MIC of the compounds of the invention is determined in the liquid dilution test on the 96-well microtiter plate scale. The bacterial microbes are cultivated in a minimal medium (18.5 mM Na2HPO4, 5.7 mM KH2PO4, 9.3 mM NH4Cl, 2.8 mM MgSO4, 17.1 mM NaCl, 0.033 μg/ml thiamine hydrochloride, 1.2 μg/ml nicotinic acid, 0.003 μg/ml biotin, 1% glucose, 25 μg/ml of each proteinogenic amino acid with the exception of phenylalanine; [H.-P. Kroll; unpublished]) with addition of 0.4% BH broth (test medium). In the case of Enterococcus faecalis ICB 27159, heat-inactivated fetal calf serum (FCS; GibcoBRL, Germany) is added to the test medium in a final concentration of 10%. Overnight cultures of the test microbes are diluted to an OD578 of 0.001 (to 0.01 in the case of Enterococci) in fresh test medium, and incubated 1:1 with dilutions of the test substances (1:2 dilution steps) in test medium (150 μl final volume). The cultures are incubated at 37° C. for 18-24 hours; Enterococci in the presence of 5% CO2.
# (§10) The lowest substance concentration in each case at which bacterial growth was no longer visible is defined as the MIC. […] The compounds show a graded antibacterial effect against most of the test microbes.
# B. catarrhalis M3 = test: as above; type: cell-based; settings: Moraxella catarrhalis, minimal medium with 0.4% BH broth, 37° C., 18-24 h
# Protocol: as §8, §9, §10
# S. aureus 25701 = test: as above; type: cell-based; settings: Staphylococcus aureus, minimal medium with 0.4% BH broth, 37° C., 18-24 h
# Protocol: as §8, §9, §10
# S. aureus RN4220 = test: as above; type: cell-based; settings: Staphylococcus aureus, minimal medium with 0.4% BH broth, 37° C., 18-24 h
# Protocol: as §8, §9, §10
# S. aureus 133 [6] = test: as above; type: cell-based
# Protocol: as §8, §9, §10
# [7] = Staphylococcus aureus, 133, read-out: MIC S. aureus 133
Compound,IC50 [1],IC50 [2],IC50 [3],therapeutic effect ED100 (S. aureus 133 [4]),MIC [5],MIC (B. catarrhalis M3),MIC (S. aureus 25701),MIC (S. aureus RN4220),MIC (S. aureus 133 [6]; [7]),"MIC (S. aureus 133 [6]; Staphylococcus aureus, 133, minimal medium with 0.4% BH broth, 37° C., 18-24 h, read-out: MIC S. aureus 133)"
"NC[C@H](O)C[C@@H]1NC(=O)[C@@H](N)Cc2cc(ccc2O)-c2ccc(O)c(c2)C[C@@H](C(=O)NCc2ccccc2)NC1=O [Example 2, (8S,11S,14S)-14-Amino-11-[(2R)-3-amino-2-hydroxypropyl]-N-benzyl-5,17-dihydroxy-10,13-dioxo-9,12-diazatricyclo[14.3.1.1^2,6]henicosa-1(20),2(21),3,5,16,18-hexaene-8-carboxamide dihydrochloride]",3.4 µM,1.3 to 4.5 µM,0.55 µM,1.25 mg/kg,25 µM,25 µM,50 µM,12.5 µM,25 µM,–
NC[C@H](O)C[C@@H]1NC(=O)[C@@H](N)Cc2cc(ccc2O)-c2ccc(O)c(c2)C[C@@H](C(=O)NCC(N)=O)NC1=O [Example 37],–,0.5 µM,–,–,–,–,–,–,–,0.8 µM
"NC[C@H](O)C[C@@H]1NC(=O)[C@@H](N)Cc2cc(ccc2O)-c2ccc(O)c(c2)C[C@@H](C(N)=O)NC1=O [Example 1, (8S,11S,14S)-14-Amino-11-[(2R)-3-amino-2-hydroxypropyl]-5,17-dihydroxy-10,13-dioxo-9,12-diazatricyclo[14.3.1.1^2,6]henicosa-1(20),2(21),3,5,16,18-hexaene-8-carboxamide dihydrochloride]",0.5 µM,0.9 µM,0.15 µM,–,6.25 µM,1.56 µM,6.25 µM,0.1 µM,0.2 µM,–
